Usually IC50 stands for the concentration needed to halve the response being measured.

The subject of one data set is MCF-7 cell line. The data set can be described thus: Mitochondrial membrane potential assay (JC-1 staining). The class given is cell-based. To be noted: MCF-7, 20 μM, 48 h. On the procedure: (§1) The present study investigated the involvement of mitochondria in compound-5-induced apoptosis by JC-1 staining. Red fluorescence indicates JC-1 aggregates, and green fluorescence indicates membrane potential leading to an increase in JC-1 monomers.
(§2) A mitochondrial membrane potential assay kit (Beyotime Co., Nantong, China) was used to measure the mitochondrial membrane potential with a JC-1 fluorescent probe. […] The cells were then fixed with 4% paraformaldehyde and stained with 5 mg/L JC-1 at 37 °C for 1 h. Fluorescent images were acquired using a fluorescence microscope (Olympus IX81, Olympus, Tokyo, Japan).

The next data set concerns MDA-MB-231 cell line. The data set is described as above. The conditions noted are these: MDA-MB-231, 20 μM, 48 h. The class given is cell-based. On the procedure: as §1, §2
In the next data set the test system is HepG2 cell line. Described as above. It is filed as cell-based. To be noted: HepG2, 20 μM, 48 h. How it is done: as §1, §2
In the next data set the test system is MDA-MB-231 cancer cells. The experiment in a line: MTT anti-proliferative assay. It is filed as cell-based. To be noted: Homo sapiens, 24 h. Background: Tetrazolium dyes change colour on reduction, which living cells bring about.
In a further data set the test system is MCF-7 cancer cells. The experiment in a line: MTT anti-proliferative assay. The conditions noted are these: Homo sapiens, MCF7, 24 h. The class given is cell-based.
For the next data set, the target named is T1, hCA IX (Homo sapiens, UniProt Q16790).
T1 construct: purchased Shanghai Jining Biological
The experiment in a line: CA inhibition assay, 4-nitrophenyl acetate (4-NPA) esterase assay. The conditions noted are these: errors ±5–10% of the reported values. It is filed as biochemical.

The next data set addresses T2, hCA II (Homo sapiens, UniProt P00918).
T2 construct: purchased Shanghai Jining Biological
The description is as above. The class given is biochemical. To be noted: errors ±5–10% of the reported values.

A further data set relates to MCF-7 cells. The data set can be described thus: Annexin V-FITC/propidium iodide analysis of apoptosis. The class given is cell-based. To be noted: MCF-7, 24 h incubation. On the procedure:
(§3) Annexin V-FITC/propidium iodide analysis of apoptosis assays were conducted to evaluate the effect of 5c on apoptosis in the MDA-MB-231, MCF-7, and HepG2 cancer cell lines. As shown in Table 3 and Figure 4, a significant increase in the percentage of apoptotic cells (containing early and late apoptosis percentages) and a notable decrease in cell viability were observed after incubation with compound 5c for 24 h.
(§4) Cells were cultured in 6-well plates and treated with the compounds for 24 h. Approximately 1 × 10^5 cells were collected and suspended in binding buffer. Apoptosis was analyzed using an AV/PI apoptosis detection kit (Beyotime Institute of Biotechnology, Shanghai, China) with a flow cytometer (BD Bioscience, Franklin Lakes, NJ, USA).

Another data set deals with HepG2 cells. The description is as above. It is filed as cell-based. The conditions noted are these: HepG2, 24 h incubation. How it is done: as §3, §4
Another data set has as its system MDA-MB-231 cells. The data set is described as above. It is filed as cell-based. To be noted: MDA-MB-231, 24 h incubation. How it is done: as §3, §4
In a further data set the test system is HepG2 cancer cells. The data set can be described thus: MTT anti-proliferative assay. The class given is cell-based. To be noted: Homo sapiens, 24 h.

Each structure is given as a SMILES string. Like-named read-outs stand apart in the source and are kept apart here.

Experimental for HepG2 cancer cells: (§5) The median growth-inhibitory concentration (IC50) in the treated cells was compared to that of untreated controls. Cells were cultured under normoxic and hypoxic conditions to evaluate the effects of the compounds on cancer cell viability.
(§6) The cell cultures were passaged once every 2–3 days.
(§7) The 3-(4,5-dimethylthiazol-2-yl)-2,5-diphenyltetrazolium bromide (MTT) assay was used to measure the cell viability. Cells were planted into 96-well plates (4 × 10^3 cells per well) and cultured in media containing different concentrations of compounds. […] The supernatant was then discarded, and 150 μL of DMSO was added to each well, followed by gentle shaking. The absorbance value at 570 nm was measured using an EL808 microplate reader (Bio-TEK Instrument, Winooski, VT, USA).
Experimental for MCF-7 cancer cells: as §5, §6, §7
Experimental for MDA-MB-231 cancer cells: as §5, §6, §7
Experimental for hCA II: (§8) The inhibitory activity was evaluated by monitoring the hydrolysis of 4-nitrophenylacetate (4-NPA.).
(§9) Therefore, according to the method described by Verpoorte previously [32], 4-NPA was catalyzed into 4-nitrophenol for the determination of CA activity.
(§10) The substrate (4-NPA) was dissolved in DMSO at a substrate concentration of 1 mM. Standard hCAs II and IX (acquired from Shanghai Jining Biological) were diluted to the indicated concentrations with assay buffer and added to the cells. Different concentrations of inhibitors were added to the cells, followed by incubation at room temperature for 15 min to form complexes of inhibitors and enzymes (E-I). Then, 100 μL of E-I complex and 900 μL of substrate were successively added to a 1 mL glass cuvette and mixed immediately. […] At the same time, the non-enzymatic hydrolysis rate was determined by a blank control test. Standard hCAs II and IX were diluted to final concentrations of 1.5 ng/μL and 5 ng/μL, respectively [26, 35]. The FORECAST (x, known-y’s, known-x’s) command of Excel was used to return a predicted value through the linear regression equation to calculate the IC50 values. The experiments were repeated three times for each inhibitor concentration.
Experimental for hCA IX: as §8, §9, §10

Consider `NS(=O)(=O)c1ccc(NC(=S)NC(=O)c2ccc3c(c2)C(=O)c2ccccc2C3=O)cc1` [Compound 5c, 9,10-Dioxo-N-((4-Sulfamoylphenyl)Carbamothioyl)-9,10-Dihydroanthracene-2-Carboxamide], for which the mitochondrial membrane potential result with MCF-7 cell line, in the data set on MDA-MB-231 cell line and with HepG2 cell line was “reduction in mitochondrial membrane potential” in each case. Also, the IC50 in the data set with MDA-MB-231 cancer cells (hypoxic (0.5% O2), read-out: IC50 MDA-MB-231 Hypo) amounted to 46.2 ± 3.93 µM; in the data set on MDA-MB-231 cancer cells (normoxic, read-out: IC50 MDA-MB-231 Normo), 48.1 ± 3.23 µM; in the data set on MCF-7 cancer cells (hypoxic (0.5% O2), read-out: IC50 MCF-7 Hypo) it was 28.1 ± 1.72 µM; in the data set on MCF-7 cancer cells (normoxic, read-out: IC50 MCF-7 Normo) it was 34.3 ± 2.85 µM; against hCA IX it was 0.0406 µM; at hCA II, 0.0416 µM. The IC50 with HepG2 cancer cells (hypoxic (0.5% O2), read-out: IC50 HepG2 Hypo) came out at 69.4 ± 5.16 µM; in the data set on HepG2 cancer cells (normoxic, read-out: IC50 HepG2 Normo), 61.4 ± 5.75 µM. For the same compound, the results for the “Cell Viability (Lower Left %)” value in the data set with MCF-7 cells, in the data set on HepG2 cells and in the data set with MDA-MB-231 cells were 51.77 ± 2.80%, 70.12 ± 2.84% and 68.88 ± 2.30%, respectively. The “Total Apoptosis (L.R% + U.R%)” value is recorded as 43.37 ± 3.92% with MCF-7 cells, 25.06 ± 2.01% in the data set on HepG2 cells and 27.26 ± 1.76% with MDA-MB-231 cells.

(Values after PMC10969960, “Novel Anthraquinone-Based Benzenesulfonamide Derivatives and Their Analogues as Potent Human Carbonic Anhydrase Inhibitors with Antitumor Activity: Synthesis, Biological Evaluation, and In Silico Analysis” (International Journal of Molecular Sciences, 2024).)
